# Experimental data taken from patent US9956144B2, “Process for particle processing of active pharmaceutical ingredients” (HOVIONE INTER LIMITED, priority 2010, dated 2018).
# Tests used:
# Type in all cases: physicochemical
# [1] = Particle size distribution of the powder produced by high pressure cavitation (HPC) and spray drying; conditions: dry powder after HPC followed by spray drying
# Text: The suspension may be passed through a high pressure cavitation apparatus several times until the desired particle size and size distribution is achieved. […] The recirculation may, for example, be performed from 2-30 times (or cycles) depending upon the API. Preferred cycle ranges include from 5 to 25 and 15 to 25. […] As will be clear to those in the art, span is defined by the ratio ((Dv90−Dv10)/Dv50), with Dv being the diameter value at which a defined percentage of the particles (eg 10%, 50% or 90% in the equation) have a diameter equal to or less than the Dv value.
# [2] = XRPD of the isolated product (polymorphic form after HPC and spray drying); conditions: after HPC followed by spray drying
# [3] = Detection of the anhydrous form by near infrared spectroscopy; conditions: after HPC followed by spray drying
# [4] = TGA of the isolated product; conditions: after HPC followed by spray drying
# [5] = Amorphous content determined by dynamic vapour sorption (DVS); conditions: after HPC followed by spray drying
Structure (SMILES),Dv10 [1] [μm],Dv50 [1] [μm],Dv90 [1] [μm],span ((Dv90−Dv10)/Dv50) [1],XRPD of the product isolated (polymorphic form retained) [2],anhydrous form [3],TGA value [4] [%],amorphous content [5]
CCC(=O)O[C@]1(C(=O)SCF)[C@H](C)C[C@H]2[C@@H]3C[C@H](F)C4=CC(=O)C=C[C@]4(C)[C@@]3(F)[C@@H](O)C[C@@]21C [Fluticasone propionate],1.20,2.45,4.68,1.4,substantially the same as the starting material,,,
C[C@@H]1C[C@H]2[C@@H]3CCC4=CC(=O)C=C[C@]4(C)[C@@]3(Cl)[C@@H](O)C[C@]2(C)[C@@]1(OC(=O)c1ccco1)C(=O)CCl [Mometasone furoate monohydrate],1.91,3.97,7.47,1.4,"substantially the same as claimed in U.S. Pat. No. 6,180,781B1",not detected,3.0,below 1.1%
C[C@@H]1C[C@H]2[C@@H]3C[C@H](F)C4=CC(=O)C=C[C@]4(C)[C@@]3(F)[C@@H](O)C[C@]2(C)[C@@]1(OC(=O)c1ccco1)C(=O)SCF [Fluticasone furoate],0.89,1.95,3.78,1.5,substantially the same as the starting material,,,
OCc1cc(C(O)CNCCCCCCOCCCCc2ccccc2)ccc1O (stereo not drawn) [Salmeterol xinafoate],0.33,1.37,3.09,2.0,substantially the same as the starting material,,,
C[N+]1(C)[C@@H]2C[C@@H](OC(=O)C(O)(c3cccs3)c3cccs3)C[C@H]1[C@@H]1O[C@@H]12 [Tiotropium bromide],0.74,2.90,5.58,1.7,,,,
